In brackets after ≈: the same amount, converted by molar mass.
Experiments:
E. coli AG100 [1] = experiment: Ethidium bromide (EtBr) uptake assay; type: cell-based; conditions: bacteria in PBS, FIG. 2A
Protocol: Cells were grown overnight in LB broth at 37° C. to an optical density of 1 (620 nm), washed twice in 200 μl PBS, and resuspended in the same buffer containing 0.5% glucose. […] Fluorescence was recorded by a BioTeK synergy HT Microplate Reader (excitation, 530 nm; emission, 645 nm).
Ethidium bromide is known for its ability to spontaneously translocate across bacterial membranes and interact with nucleic acids, as can be evidenced by the increase in fluorescence signal.

[2] = Cochleate formation by light microscopy; type: physicochemical; parameters: key: or above (E!); excellent (E); good (G); poor (P); none (N)
Protocol: Lipid films containing binary mixtures of lipids were made from aliquots of stock solutions in chloroform:methanol (2:1). The solvent was evaporated with a stream of nitrogen gas and the lipids deposited as a film on the walls of a glass tube. The tubes were then placed in a vacuum dessicator for 3 hours. The films were kept under Argon at −20° C. The lipid films were hydrated with buffer solutions of OAK polymers with extensive vortexing, so as to have a lipid to polymer molar ratio of […].
Hydrated films were subjected to freeze thawing three times before imaging, to ensure proper equilibration of OAK with the multilamellar vesicles. A drop of this mixture was placed on a glass slide and covered with a glass coverslip. Light microscopy was carried out at room temperature using a Zeiss Axiovert 100M microscope with a Plan-Neofluar 100×/1.3 oil immersion objective. Images were analyzed with the Zeiss LSM image browser v2.8.
The morphology of the samples of different OAKs and different lipid mixtures could be classified into the following categories.
Table 5 presents the results of cochleate formation with different lipid mixtures of 1:10 lipid to polymer ratio, and a series of OAK polymers, indicated by their alternative denotations and SED ID Nos in parentheses. “Tm” denotes the melting temperature of the lipid bilayer afforded by the given lipid mixture. Some selected samples were further analyzed to confirm the results with freeze fracture electron microscopy for, as indicated in Table 5. Cochleate formation is defined as excellent (E) or above (E!), good (G), poor (P), or none (N) based on the aforementioned comparison, as well as on the abundance of cochleate structures observed in the light microscopy images. Lipid mixtures having a number in parenthesis are samples for which freeze-fracture electron microscopy analysis was conducted. Lipid mixtures having a “+” sign next to the number in parenthesis are samples which were confirmed by freeze-fracture electron microscopy as forming large cochleates with few vesicles and no inverted micellar (HII) morphology (samples 2, 3 and 5), or smaller cochleate structures mixed with other morphologies (samples 0 and 4). Lipid mixtures which contain only anionic lipids are marked with “^A”. Sample 0 is the lipid/OAK system used and presented in Example 1 hereinabove.

E. coli = type: cell-based
Protocol: (§1) All bacteria were cultured in Luria-Bertani (LB) medium (10 g/l tryptone, 5 g/l yeast extract, 5 g/l NaCl, pH 7.4).
(§2) Bacteria were grown overnight in LB growth medium and diluted 10,000-fold in same medium.
(§3) Inhibition of proliferation was determined by optical density measurements (620 nm) after incubation overnight at 37° C.

A. aureus = type: cell-based
Protocol: as §1, §2, §3

[3] = Molecular charge and RP-HPLC hydrophobicity of polymers; type: physicochemical; conditions: HPLC-RP gradient mobile phase
From the text: Briefly, the polymers were synthesized while applying the Fmoc active ester chemistry on a fully automated, programmable peptide synthesizer (Applied Biosystems 433A). After cleavage from the resin, the crude product was extracted with 30% acetonitrile in water and purified by RP-HPLC (Alliance Waters), so as to obtain a chromatographic homogeneity higher than 95%. HPLC runs were typically performed on C18 columns (Vydac, 250 mm×4.6 or 10 mm) using a linear gradient of acetonitrile in water (1% per minute), both solvents containing 0.1% trifluoroacetic acid. The purified polymers were subjected to mass spectrometry (ZQ Waters) and NMR analyses to confirm their composition, and stored as a lyophilized powder at −20° C. Prior to being tested, fresh solutions were prepared in water, vortexed, sonicated, centrifuged and then diluted in the appropriate medium.
“Q” represents the overall molecular charge at physiological pH; “ACN (%)” represents the percent of acetonitrile in the HPLC-RP gradient mobile phase at which the polymer was eluted and which corresponds to the estimated hydrophobicity of the polymer. The column headed by “Ref.” indicates prior reference of the OAK if present, wherein a number in parentheses “(##)” corresponds to the SEQ ID NO in U.S. Pat. No. 7,504,381; the letter “R” indicates a polymer published in Radzishevsky I. S. et al. (2008), Chem. Biol., 15(4), pp. 354-362; and “New” indicates a novel polymer disclosed herein.

[4] = Encapsulation efficiency, liposome versus cochleate (MIC and fluorescamine methods); type: physicochemical
E. coli AG100 [5] = experiment: Bactericidal kinetics (time-kill); type: cell-based; conditions: sub-MIC concentrations, FIG. 2B
Protocol: Bacteria were sampled at various time intervals, subjected to serial 10-fold dilutions, and plated onto LB-agar. Cell counts were determined using the drop plate method. Plates were incubated overnight at 37° C. and colonies were counted.

[6] = system: four MDR clinical isolates of E. coli; type: cell-based
Protocol: as §2, §3

[7] = Maximal tolerated dose (MTD), single IV injection; conditions: mice, free OAK
[8] = Freeze fracture electron microscopy of cochleates
[9] = system: Klebsiella pneumoniae CI 1286; experiment: Whole blood assay (stability and drug release); type: cell-based; conditions: whole human blood, 37° C., 4 and 40 multiples of the MIC, FIG. 4D
Protocol: Stability and drug release rates were assessed using the human blood-resistant Klebsiella pneumoniae CI 1286. […] After the specified incubation periods (37° C.), aliquots were plated on LB agar as described above (Antibacterial assays) for CFU count.
The stability of OAK-cochleate and OAK-liposome preparations in whole blood was compared by assessing antibacterial activity against the blood-resistant strain of Klebsiella pneumonia.

Compound: CCCCCCCCCCCC(=O)NC(CCCCN)C(=O)NCCCCCCCC(=O)NC(CCCCN)C(=O)NCCCCCCCC(=O)NC(CCCCN)C(=O)NCCCCCCCC(=O)NC(CCCCN)C(=O)NCCCCCCCC(=O)NC(CCCCN)C(=O)NCCCCCCCC(=O)NC(CCCCN)C(=O)NCCCCCCCC(=O)NC(CCCCN)C(=O)NCCCCCCCC(=O)NC(CCCCN)C(N)=O (stereo not drawn) [C12K-7α8, C12K(NC8K)7NH2]
- EtBr uptake (intracellular accumulation) (E. coli AG100 [1]): enhanced in a dose-dependent manner
- Cochleate formation ([2]; DMPC:TOCL 75:25, 1:10 lipid to polymer ratio): N
- Cochleate formation ([2]; DMPE:DOPG 75:25, 1:10 lipid to polymer ratio): E
- Cochleate formation ([2]; DMPE:TOCL 75:25, 1:10 lipid to polymer ratio): E
- Cochleate formation ([2]; DMPG:TOCL 75:25 (anionic lipids only), 1:10 lipid to polymer ratio): N
- Cochleate formation ([2]; DOPE:TOCL 75:25, 1:10 lipid to polymer ratio): P
- Cochleate formation ([2]; DPPE:TOCL 75:25, 1:10 lipid to polymer ratio): E
- Cochleate formation ([2]; POPC:TOCL 75:25, 1:10 lipid to polymer ratio): P
- Cochleate formation ([2]; POPE:DOPG 75:25, 1:10 lipid to polymer ratio): N
- Cochleate formation ([2]; POPE:DOPG:TOCL 80:15:5, 1:10 lipid to polymer ratio): N
- Cochleate formation ([2]; POPE:TOCL 50:50, lipid to polymer 10:1): poor cochleate former
- Cochleate formation ([2]; POPE:TOCL 75:25, 1:10 lipid to polymer ratio): G
- Cochleate formation ([2]; POPG:TOCL 75:25 (anionic lipids only), 1:10 lipid to polymer ratio): G
- Cochleate formation ([2]; TOCL alone, lipid to polymer 10:1): abundance of smaller liposomes
- MIC E. coli (E. coli): 3.1 µM (≈ 6.86 µg/mL)
- MIC A. aureus (A. aureus): 50 µM (≈ 111 µg/mL)
- ACN (%) (percent acetonitrile at elution, estimated hydrophobicity) [3]: 47.5%
- OAK encapsulation efficiency in cochleates (OAK bound) ([4]; cochleates (POPE:TOCL)): > 80%
- OAK encapsulation efficiency in liposomes ([4]; liposomes (PC:PEG2000)): < 20%
- time-kill, OAK alone (E. coli AG100 [5]): significant bactericidal activity at sub-MIC concentrations
- OAK MIC [6]: 6.9 µg/mL
- mortality ([7]; 10 mg/kg): 33%
- maximal tolerated dose (MTD) [7]: ~5 mg OAK/kg
- cochleate formation by freeze fracture electron microscopy ([8]; DMPE:TOCL (75:25), DPPE:TOCL (75:25) or DMPE:DOPG (75:25)): strongly promoted the formation of large cochleates
- Pre-formed and fully formed cochleate Length ([8]; POPC:TOCL 75:25, 10:1 lipid to polymer): (1.8) μm
- cochleate formation by freeze fracture electron microscopy ([8]; POPC:TOCL (75:25) or POPG:TOCL (75:25)): weakly promoted cochleate formation

Compound: C12K(NC8K)7NH2 [C12K-7α8]
- antibacterial activity / OAK release in whole blood [9]: maintained rapid bactericidal activity
